Test results published in publication PMC7710018, “Restoration of motor learning in a mouse model of Rett syndrome following long-term treatment with a novel small-molecule activator of TrkB” (Disease Models & Mechanisms, 2020).
Entries after “also recorded” stand apart in the source; their conditions may differ.

Legend:
[1] = test system: Het mice; parameters: method as in Li et al., 2017; settings: long-term treatment of Het mice; ref Li et al., 2017; cited from earlier work
[2] = test system: rat model of traumatic brain injury; parameters: method as in Massa et al., 2010; settings: ref Massa et al., 2010; cited from earlier work
[3] = test system: 3T3-TrkA cells; assay: NIH-3T3 cell survival (ViaLight); assay type: cell-based, mouse; settings: serum-free medium, 72-96 h, PTX-BD4-3 1000 nM
[4] = test system: 3T3-TrkC cells; assay: NIH-3T3 cell survival (ViaLight); assay type: cell-based, mouse; settings: serum-free medium, 72-96 h, PTX-BD4-3 1000 nM
[5] = test system: 55 pharmacologically relevant receptors; assay: Cerep ExpresSProfile screen, whole panel; settings: 10 μM; inhibition of binding greater than 50% = significant binding
Source text: To further define the specificity of PTX-BD4-3 for TrkB, we screened 55 pharmacologically relevant receptors, including neurotransmitter and G-protein coupled receptors for PTX-BD4-3 binding (Table S1). […] Thus, as with LM22A-4 ([Massa et al., 2010]), the specificity of PTX-BD4-3 for TrkB is supported by multiple lines of evidence, including receptor binding, receptor activation, receptor adaptor recruitment and cell survival assays.
To evaluate the relative binding specificity of LM22A-4 ([Massa et al., 2010]) and PTX-BD4-3, binding to a broad range of 55 pharmacologically relevant receptors, including numerous neurotransmitter and G-protein coupled receptors was assessed using standard radioligand competition binding assays (ExpressSProfile) performed by Cerep, Inc. (Seattle, WA, USA). In addition, ADME-Tox analysis was performed by Cerep, Inc. All experimental conditions are described on the Cerep website (www.cerep.fr). […]
48 Ca2+ channel (L, verapamil site) 0 ‐1.3 ‐0.7
(phenylalkylamine) (antagonist radioligand) […]
51 Na+ channel (site 2) (antagonist radioligand) 0.6 11.7 6.1
52 Cl‐ channel (GABA‐gated) (antagonist 2.7 ‐5.3 ‐1.3 […]
Table S1. In vitro binding assays. […]
(Eurofins Panlabs, MO). The results are expressed as percent inhibition of control specific binding obtained in the presence of 10 micromolar PTX-BD4-3. […]

[6] = test system: heterozygous (Het) female Mecp2 mutant mice; assay: Rotarod; assay type: in vivo, mouse; settings: 5 mg/kg q72 h
Experimental: Small-molecule compounds were diluted in saline and delivered by i.p. injection. To define the acute effects of single drug treatments, behavioral testing was initiated 1 h after dosing. Durable effects of single drug treatments were evaluated 24 h after dosing. […]
A Rotarod apparatus (Columbus Instruments) was used test to assess sensorimotor coordination. Animals were placed on a rotating rod at a constant speed of 4 rpm for 1 min of acclimation. […] Latency of the animal to fall was recorded. The test was repeated three times, with each trial separated by 15 min, to assess potential learning components of any observed phenotypes.

[7] = test system: 3T3 parent line, which does not express Trk receptors; assay: NIH-3T3 cell survival; assay type: cell-based, mouse; settings: serum-free medium

| Compound | behavioral learning in a spatial memory task [1] | motor learning [2] | survival of 3T3-TrkA cells [3] | survival of 3T3-TrkC cells [4] | binding within the panel of 55 receptors [5] | Rotarod performance (latency to fall) ([6]; 2 weeks, repeated testing, 24 h after last dose) | Rotarod performance (latency to fall) ([6]; 8 weeks, repeated testing at 2, 4, 8 weeks, 24 h after last dose) | Rotarod performance (latency to fall) ([6]; 8 weeks, tested only at the end of treatment, vs saline-treated Het) | survival of the 3T3 parent line [7] |
| --- | --- | --- | --- | --- | --- | --- | --- | --- | --- |
| O=C(NCCO)c1cc(C(=O)NCCO)cc(C(=O)NCCO)c1 [LM22A-4, N,N′,N′′-tris(2-hydroxyethyl)-1,3,5-benzenetricarboxamide, reference compound] | improves behavioral learning | improve motor learning |  |  |  |  |  |  |  |
| COCCN(C)C(=O)c1cc(C(=O)N(C)CCOC)cc(C(=O)N(C)CCOC)c1 [PTX-BD4-3, benzene-1,3,5-tricarboxylic acid tris-[(2-methoxy-ethyl)-methyl-amide]] |  |  | no effect | no effect | negative; also recorded: no significant binding | as impaired as their saline-treated Het littermates | comparable to that of saline-treated Wt controls | no improvement | did not support survival |
